Among the data in PubChem BioAssay AID330 (DTP/NCI, 2004) are T/C values, retold here.

This assay concerns P388 leukemia ip, CD2F1 mice, survival T/C. Description: NCI In Vivo Anticancer Drug Screen. Data for tumor model P388 Leukemia (intraperitoneal) in CD2F1 (CDF1) mice. The following applies: endpoint: median survival time, higher = longer survival. A digest of the protocol: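 Mice carrying the transplanted tumor received test compound or vehicle. Survival was recorded in each group, and the value is the treated-group measurement divided by that of the vehicle-treated control group.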

[1] abbreviates: dose: 50.0 mg/kg/injection, schedule: Q01DX009 (ip), vehicle: saline with Tween-80.
Where [2] appears, read: dose: 100.0 mg/kg/injection, schedule: Q01DX009 (ip), vehicle: saline with Tween-80.
The mark [3] stands for this setting: dose: 60.0 mg/kg/injection, schedule: Q01DX005 (ip), vehicle: saline with Tween-80.
The mark [4] stands for this setting: dose: 120.0 mg/kg/injection, schedule: Q01DX005 (ip), vehicle: saline with Tween-80.
The mark [5] stands for this setting: dose: 240.0 mg/kg/injection, schedule: Q01DX005 (ip), vehicle: saline with Tween-80.
[6] abbreviates: dose: 50.0 mg/kg/injection, schedule: Q01DX005 (ip), vehicle: saline with Tween-80.
Setting [7] is: dose: 100.0 mg/kg/injection, schedule: Q01DX005 (ip), vehicle: saline with Tween-80.
Where [8] appears, read: dose: 200.0 mg/kg/injection, schedule: Q01DX005 (ip), vehicle: saline with Tween-80.
Setting [9] is: dose: 50.0 mg/kg/injection, schedule: Q01DX005 (ip), vehicle: Klucel (hydroxypropylcellulose) (HPC).
Where [10] appears, read: dose: 100.0 mg/kg/injection, schedule: Q01DX005 (ip), vehicle: Klucel (hydroxypropylcellulose) (HPC).
Where [11] appears, read: dose: 200.0 mg/kg/injection, schedule: Q01DX005 (ip), vehicle: Klucel (hydroxypropylcellulose) (HPC).
Where [12] appears, read: dose: 50.0 mg/kg/injection, schedule: Q01DX009 (ip), vehicle: Klucel (hydroxypropylcellulose) (HPC).
The mark [13] stands for this setting: dose: 100.0 mg/kg/injection, schedule: Q01DX009 (ip), vehicle: Klucel (hydroxypropylcellulose) (HPC).
[14] abbreviates: dose: 200.0 mg/kg/injection, schedule: Q01DX009 (ip), vehicle: Klucel (hydroxypropylcellulose) (HPC).
Where [15] appears, read: dose: 200.0 mg/kg/injection, schedule: Q01DX009 (ip), vehicle: saline with Tween-80.

Several values for one entry are separate records, joined by “and”; a condition that tells them apart may be missing. Identical values can stand only once. Toxic doses and inconclusive results are not listed.

In the case of `CC1=NC2=NC(CCCC(=O)OCc3ccc(Cl)c(Cl)c3)=NC3=CC=CC(=N1)N32`, the T/C was 101 % of control (dose: 25.0 mg/kg/injection, schedule: Q01DX009 (ip), vehicle: saline with Tween-80); 111 % of control under setting [1]; 95 % of control under setting [2].
In the case of `CC(=O)Nc1cnc2c(nc3cc(C)ccn32)c1C`, the T/C was 106 % of control under setting [3], 100 % of control under setting [4] and 97 % of control under setting [5].
`CS/C(=N\N=C(/C)c1ccccn1)N/N=C(\SC)N(C)c1ccccc1`: the T/C by setting is: under setting [6], 108 % of control; under setting [7], 104 % of control; under setting [8], 110 % of control.
Turning to `O=C(O)c1cccc2c1C(=O)c1ccccc1-2`, the T/C is 95 % of control under setting [9], 100 % of control under setting [10] and 105 % of control under setting [11].
In the case of `N=C(/C(=C/c1cccc2ccccc12)c1ccccc1)c1ccccc1`, the T/C under setting [12] is 98 % of control, the T/C under setting [13] was 104 % of control and the T/C under setting [14] is 108 % of control.
Turning to `CP1(=S)CCC2=C1CCc1cc(O)ccc12` (configuration not stated), the T/C was 104 % of control under setting [12], 104 % of control under setting [13] and 101 % of control under setting [14].
Take `C=C(C)C12CC(C)C34OC(CCCCCCCCCCC)(OC1C3C1OC1(CO)C(O)C1(O)C(=O)C(C)=CC14C)O2` (configuration not stated): the T/C (dose: 0.05 mg/kg/injection, schedule: Q01DX009 (ip), vehicle: distilled water + Tween-80) is 99 % of control and 100 % of control; the T/C (dose: 0.06 mg/kg/injection, schedule: Q01DX009 (ip), vehicle: other) was 100 % of control; the T/C (dose: 0.1 mg/kg/injection, schedule: Q01DX009 (ip), vehicle: distilled water + Tween-80) was 100 % of control and 96 % of control; the T/C (dose: 0.12 mg/kg/injection, schedule: Q01DX009 (ip), vehicle: other) was 104 % of control; the T/C (dose: 0.2 mg/kg/injection, schedule: Q01DX009 (ip), vehicle: distilled water + Tween-80) is 103 % of control and 96 % of control; the T/C (dose: 0.4 mg/kg/injection, schedule: Q01DX009 (ip), vehicle: distilled water + Tween-80) is 105 % of control and 119 % of control. In addition, the T/C is 112 % of control (dose: 25.0 micrograms/kg/injection, schedule: Q01DX009 (ip), vehicle: other) and 112 % of control (dose: 50.0 micrograms/kg/injection, schedule: Q01DX009 (ip), vehicle: other).
As for `O=c1c2ccccc2c(=O)n2n1C1CCC2C1`, the T/C under setting [9] was 96 % of control, the T/C under setting [10] was 110 % of control and the T/C under setting [11] is 100 % of control.
On to `CCn1c2ccccc2c2cc(NC(=O)N(CCCl)N=O)ccc21`, for which the T/C runs as follows: (dose: 6.25 mg/kg/injection, schedule: Q01DX009 (ip), vehicle: saline with Tween-80) 119 % of control; (dose: 12.5 mg/kg/injection, schedule: Q01DX009 (ip), vehicle: saline with Tween-80) 122 % of control; under setting [2], 189 % of control.
Consider `CC1CCCCN1CCCNC(=O)Nc1ccc(Cc2ccc(NC(=O)NCCCN3CCCCC3C)cc2)cc1` (configuration not stated), for which the T/C (dose: 0.79 mg/kg/injection, schedule: Q01DX009 (ip), vehicle: Klucel (hydroxypropylcellulose) (HPC)) was 95 % of control and the T/C (dose: 1.56 mg/kg/injection, schedule: Q01DX009 (ip), vehicle: Klucel (hydroxypropylcellulose) (HPC)) is 97 % of control.
Turning to `Nc1ccc(Nc2ccncc2)cc1`, the T/C (dose: 6.25 mg/kg/injection, schedule: Q01DX009 (ip), vehicle: Klucel (hydroxypropylcellulose) (HPC)) is 100 % of control; the T/C (dose: 12.5 mg/kg/injection, schedule: Q01DX009 (ip), vehicle: Klucel (hydroxypropylcellulose) (HPC)) is 95 % of control; the T/C (dose: 25.0 mg/kg/injection, schedule: Q01DX009 (ip), vehicle: Klucel (hydroxypropylcellulose) (HPC)) was 100 % of control.
`Cc1n[nH]c(=S)n1N`: the T/C under setting [12] is 94 % of control; the T/C under setting [13] is 93 % of control; the T/C under setting [14] was 95 % of control; the T/C (dose: 400.0 mg/kg/injection, schedule: Q01DX009 (ip), vehicle: Klucel (hydroxypropylcellulose) (HPC)) is 88 % of control.
As to `CN(C)c1ccc(CN2CCCN(Cc3ccc(N(C)C)cc3)C2c2cc(Cl)ccc2O)cc1`, the T/C by setting is: under setting [2], 95 % of control; under setting [15], 90 % of control; (dose: 400.0 mg/kg/injection, schedule: Q01DX009 (ip), vehicle: saline with Tween-80) 90 % of control.
For the compound `CCOC(=O)C1=C(C(=O)c2ccc(C)cc2)C(c2c(Cl)cccc2Cl)C(C(=O)c2ccc(C)cc2)=C(C(=O)OCC)N1`, the T/C is 104 % of control (dose: 30.0 mg/kg/injection, schedule: Q01DX005 (ip), vehicle: saline with Tween-80); 102 % of control under setting [3]; 104 % of control and 90 % of control under setting [4]; 88 % of control under setting [5].
As to `O=S(=O)(Oc1ccc2ccccc2c1)C(F)(F)C(F)(F)C(F)(F)C(F)(F)F`, the T/C by setting is: under setting [1], 100 % of control; under setting [2], 108 % of control; under setting [15], 108 % of control.
For the compound `CCOC(=O)c1cn(C)c2c1C(O)=C(C(=O)OC)CC(=O)N2`, the T/C is, setting by setting: (dose: 100.0 mg/kg/injection, schedule: Q04DX003 (ip), vehicle: saline with Tween-80) 95 % of control; (dose: 200.0 mg/kg/injection, schedule: Q04DX003 (ip), vehicle: saline with Tween-80) 100 % of control; (dose: 400.0 mg/kg/injection, schedule: Q04DX003 (ip), vehicle: saline with Tween-80) 117 % of control.
`CCCCC1SCC(=O)N1c1nncs1` (configuration not stated): the T/C runs as follows: under setting [3], 104 % of control; under setting [4], 98 % of control; under setting [5], 103 % of control.
With `CCCCN(CCCC)CCNc1ccc(C)c2sc3ccc([N+](=O)[O-])cc3c(=O)c12`, the T/C runs as follows: under setting [9], 100 % of control; under setting [10], 99 % of control; under setting [11], 100 % of control.
Regarding `CCCCCCCCCCC(=O)Nc1ncc([N+](=O)[O-])s1`, the T/C was 96 % of control under setting [12], 100 % of control under setting [13] and 102 % of control under setting [14].
Take `N#CNC(=O)c1ccc(C(=O)NC#N)cc1`: the T/C is 98 % of control under setting [6], 98 % of control under setting [7] and 90 % of control under setting [8].
With `COc1cc2oc(=O)cc(C)c2cc1[N+](=O)[O-]`, the T/C is 98 % of control (dose: 50.0 mg/kg/injection, schedule: Q01DX009 (ip), vehicle: suspension in saline); 95 % of control (dose: 100.0 mg/kg/injection, schedule: Q01DX009 (ip), vehicle: suspension in saline); 96 % of control (dose: 200.0 mg/kg/injection, schedule: Q01DX009 (ip), vehicle: suspension in saline).
For the compound `Cc1cc(CSC(=N)N)c(C)cc1CSC(=N)N`, the T/C by setting is: (dose: 5.0 mg/kg/injection, schedule: Q01DX009 (ip), vehicle: saline with Tween-80) 100 % of control; (dose: 10.0 mg/kg/injection, schedule: Q01DX009 (ip), vehicle: saline with Tween-80) 109 % of control; (dose: 10.0 mg/kg/injection, schedule: Q04DX003 (ip), vehicle: saline with Tween-80) 108 % of control; (dose: 20.0 mg/kg/injection, schedule: Q01DX009 (ip), vehicle: saline with Tween-80) 109 % of control; (dose: 20.0 mg/kg/injection, schedule: Q04DX003 (ip), vehicle: saline with Tween-80) 104 % of control; (dose: 40.0 mg/kg/injection, schedule: Q04DX003 (ip), vehicle: saline with Tween-80) 116 % of control.
Take `CC(CNC(=O)CCOS(C)(=O)=O)CNC(=O)CCOS(C)(=O)=O`: the T/C was 105 % of control (dose: 6.25 mg/kg/injection, schedule: Q01DX009 (ip), vehicle: saline); 106 % of control (dose: 12.5 mg/kg/injection, schedule: Q01DX009 (ip), vehicle: saline); 100 % of control (dose: 25.0 mg/kg/injection, schedule: Q01DX009 (ip), vehicle: saline); 102 % of control (dose: 50.0 mg/kg/injection, schedule: Q01DX009 (ip), vehicle: saline).
With `c1ccc2c(c1)c1c(c3ccccc32)CN2CCCC2C1` (configuration not stated), the T/C is, setting by setting: under setting [9], 105 % of control; under setting [10], 101 % of control; under setting [11], 110 % of control.
